Measured values from ChEMBL document CHEMBL1201862, “PubChem BioAssay data set” (2004).
Activity calls are given as the source filed them.

What was measured:
[1] = target: Adenosylmethionine-8-amino-7-oxononanoate aminotransferase (Mycobacterium tuberculosis, UniProt P9WQ81); test: Mycobacterium tuberculosis BioA enzyme inhibitor Measured in Biochemical System Using Plate Reader - 2163-02_Inhibitor_Dose_CherryPick_Activity.; type: functional, Mycobacterium tuberculosis UT205
[2] = inhibitors of SNCA 5'UTR-driven reporter translation, confirmation, H4 neuroglioma cells, luminescence (AID 1988); type: functional, cell-based
[3] = Luminescence Cell-Based Dose Response HTS to Identify Inhibitors of 5'UTR Stem-Loop Driven Prion Protein mRNA Translation in H4 Neuroglioblastoma Cells. [Related pubchem assays: 1827 (Project Summary), 1813 (Primary HTS)]; type: functional
BJ [4] = test: cells; type: functional, cell-based; details: Homo sapiens
BJ [5] = test: cytotoxicity toward BJ-TERT fibroblasts, dose response, cell-based, RAS-independent, luminescence (AID 1933); type: functional; details: Homo sapiens
[6] = inhibitors of firefly luciferase expression or activity, dose response, H4 neuroglioma cells, luminescence (AID 1990); type: functional, cell-based
[7] = cytotoxicity toward DRD oncogenic fibroblasts, dose response, cell-based, non-viral oncogenic, luminescence (AID 1934); type: functional; details: Homo sapiens
BJ [8] = test: cytotoxicity toward Ras-transformed BJeLR fibroblasts, dose response, cell-based, alamar blue fluorescence, cherrypicked samples (AID 2631); type: functional; details: Homo sapiens;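 also: confirmatory dose-response assay in RAS-dependent BJ fibroblasts engineered with TERT, LT and ST, with cytotoxicity read by fluorescence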
BJ [9] = test: cytotoxicity toward BJ-TERT-LT-ST fibroblasts, dose response, cell-based, RAS-independent, luminescence (AID 1935); type: functional; details: Homo sapiens;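 also: BJ fibroblasts immortalized with TERT plus LT and ST oncogenes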
[10] = HepG2 cell cytotoxicity, dose response, cytotoxicity control for Shn3 inhibitor project, CellTiter-Glo, cherry-picked (AID 624134); type: functional, cell-based
[11] = test system: Streptococcus sp. 'group A'; test: growth inhibition of control SK(-) GAS strain, dose response, counter-screen for streptokinase expression inhibitor project, luminescence, kanamycin, BacTiterGlo, confirmation (AID 1900); type: functional, organism-based
HEK293 [12] = test: inhibitors of LMP1-driven NF-kB reporter, dose response, cell-based, HEK293, luciferase, cherry-pick (AID 588343); type: functional; details: Homo sapiens
[13] = Shn3 3'UTR reporter inhibitors, dose response, cell-based, Clone20 osteoblasts, firefly luciferase, cherry-picked (AID 624132); type: functional;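 also: firefly luciferase luminescence from reporter carrying the Shn3 3'UTR in osteoblasts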
[14] = growth suppression of beta-catenin-knockout colon cells, dose response, cell-based, HCT116, human colon tumor (AID 1045); type: functional;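 also: HCT116 colon tumor cells with beta catenin knocked out; cells exposed to compound for 60 hours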
[15] = target: Beta-2 adrenergic receptor (Homo sapiens, UniProt P07550); test: beta2AR agonists driving receptor internalization, dose response, cell-based, FAP fluorogen, flow cytometry, cherry pick 1 (AID 588763); type: functional
Sequence of Beta-2 adrenergic receptor (P07550 whole entry): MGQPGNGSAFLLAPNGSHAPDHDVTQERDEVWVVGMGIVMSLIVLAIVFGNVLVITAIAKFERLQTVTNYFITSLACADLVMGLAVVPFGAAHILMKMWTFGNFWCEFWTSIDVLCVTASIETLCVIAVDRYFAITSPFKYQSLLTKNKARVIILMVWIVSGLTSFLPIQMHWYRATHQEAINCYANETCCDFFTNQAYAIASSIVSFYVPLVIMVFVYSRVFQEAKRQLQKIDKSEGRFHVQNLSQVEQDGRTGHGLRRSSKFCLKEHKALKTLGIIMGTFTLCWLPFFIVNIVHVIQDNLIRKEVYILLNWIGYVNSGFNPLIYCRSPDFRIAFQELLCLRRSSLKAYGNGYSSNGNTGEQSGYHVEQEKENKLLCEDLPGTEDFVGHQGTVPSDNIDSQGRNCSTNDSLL

INS1 = test: beta cell apoptosis inhibitors, cytokine rescue, dose response, luminescence, retest (AID 449756); type: functional, cell-based; details: Rattus norvegicus;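 also: cell death triggered by IL-1 beta plus TNF-alpha plus IFN-gamma mixture; protective hits raise ATP signal compared with cytokine alone wells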
[16] = inhibitors of intracellular T. cruzi replication, confirmation, NIH3T3 host cells, beta-gal luminescence (AID 2044); type: functional, cell-based;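 also: intracellular parasites grown in NIH/3T3 mouse fibroblasts as host cells; luminescent beta-galactosidase reporter signal from transgenic T. cruzi replicating inside host cells; inhibitors lower the luminescence signal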
Insulin-degrading enzyme [17] = target: T1, Insulin-degrading enzyme (Homo sapiens, UniProt P14735); test: activators of recombinant IDE enzyme, dose response, counter-screen for IDE activator project, biochemical, fluorescence polarization (AID 588681)
T1 sequence (P14735 whole entry): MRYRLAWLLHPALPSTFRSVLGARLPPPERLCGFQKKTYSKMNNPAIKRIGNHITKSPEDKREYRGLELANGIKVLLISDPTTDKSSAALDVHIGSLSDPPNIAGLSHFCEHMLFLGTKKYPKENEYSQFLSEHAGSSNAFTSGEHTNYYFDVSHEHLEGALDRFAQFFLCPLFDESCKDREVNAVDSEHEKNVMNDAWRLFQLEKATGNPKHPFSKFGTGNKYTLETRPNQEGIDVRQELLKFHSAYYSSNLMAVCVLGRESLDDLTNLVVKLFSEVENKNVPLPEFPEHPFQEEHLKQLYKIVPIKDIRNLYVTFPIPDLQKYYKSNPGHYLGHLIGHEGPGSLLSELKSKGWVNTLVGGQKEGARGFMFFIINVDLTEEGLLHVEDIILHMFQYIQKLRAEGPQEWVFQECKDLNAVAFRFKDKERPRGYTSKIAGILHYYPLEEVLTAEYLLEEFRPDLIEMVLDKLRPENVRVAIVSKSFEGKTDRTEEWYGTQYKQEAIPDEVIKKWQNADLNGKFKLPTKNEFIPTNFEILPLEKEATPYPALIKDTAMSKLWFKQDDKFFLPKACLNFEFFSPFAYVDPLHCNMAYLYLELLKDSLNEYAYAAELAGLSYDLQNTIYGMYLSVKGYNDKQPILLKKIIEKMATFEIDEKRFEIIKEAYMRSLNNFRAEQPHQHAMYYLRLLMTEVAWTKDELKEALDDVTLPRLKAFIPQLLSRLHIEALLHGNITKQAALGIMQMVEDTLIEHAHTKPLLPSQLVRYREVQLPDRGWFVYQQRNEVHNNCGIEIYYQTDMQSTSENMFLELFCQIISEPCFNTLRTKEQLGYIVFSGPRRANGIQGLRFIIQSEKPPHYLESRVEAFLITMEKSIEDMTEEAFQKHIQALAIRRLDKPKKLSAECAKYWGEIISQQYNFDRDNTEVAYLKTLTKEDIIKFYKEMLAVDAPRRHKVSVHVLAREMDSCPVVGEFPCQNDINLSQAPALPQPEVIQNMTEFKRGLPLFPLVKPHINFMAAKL

Insulin-degrading enzyme [18] = target: T1, Insulin-degrading enzyme; test: activators of endogenous IDE in HEK cells, dose response, cell-based, fluorescence polarization (AID 588439); type: functional
[19] = control 3'UTR Renilla luciferase suppression, dose response, counter-screen for Shn3 inhibitor project, cell-based, Clone20-Shn3RL, cherry-picked (AID 624133); type: functional
[20] = cytotoxicity toward NIH3T3 fibroblasts, dose response, counter-screen, cell-based, ATP luminescence, mouse fibroblasts (AID 2010); type: functional;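 also: cells exposed to compound for about 90 hours before reading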
HEK293 [21] = test: HEK cell cytotoxicity by LDH release, dose response, cytotoxicity control for IDE activator project, fluorescence, HEK cells (AID 588440); type: functional, cell-based; details: Homo sapiens;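 also: cytotoxicity by LDH release measuring loss of membrane integrity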
[22] = growth suppression of PTEN-null colon cells, dose response, cell-based, HCT116 PTEN knockout (AID 1047); type: functional;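 also: HCT116 colon tumor cells with PTEN knocked out; cells exposed to compound for 60 hours before readout; potency for loss of cell viability measured by luminescence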
HEK293 [23] = test: optical interference in Abeta FP readout, dose response, artefact control for IDE activator project, biochemical, fluorescence polarization (AID 588442); type: functional, cell-based; details: Homo sapiens
Streptokinase A = target: T2, Streptokinase A (Streptococcus pyogenes serotype M1, UniProt P10520); test: S. pyogenes streptokinase expression inhibitors, potency, dose response, plasminogen activation absorbance, OD405 (AID 1914); type: functional, Streptococcus pyogenes M1 GAS;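 also: secreted streptokinase activity via plasminogen activation per viability signal from cell pellet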
T2 sequence (P10520 whole entry): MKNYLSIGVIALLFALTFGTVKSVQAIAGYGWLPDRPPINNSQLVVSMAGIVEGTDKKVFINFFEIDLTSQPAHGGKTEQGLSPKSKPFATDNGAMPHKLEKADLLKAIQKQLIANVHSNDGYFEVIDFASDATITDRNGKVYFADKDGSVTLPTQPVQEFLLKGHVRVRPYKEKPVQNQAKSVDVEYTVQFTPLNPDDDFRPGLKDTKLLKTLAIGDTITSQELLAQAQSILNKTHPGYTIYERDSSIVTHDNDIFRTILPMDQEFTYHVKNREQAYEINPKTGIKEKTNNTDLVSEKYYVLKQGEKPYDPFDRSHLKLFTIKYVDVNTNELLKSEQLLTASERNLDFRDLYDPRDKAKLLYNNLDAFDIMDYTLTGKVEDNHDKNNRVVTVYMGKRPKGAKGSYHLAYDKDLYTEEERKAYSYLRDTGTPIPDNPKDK

Streptococcus = test: Group A Streptococcus viability loss, dose response, counter-screen for streptokinase expression inhibitor project, luminescence, BacTiterGlo (AID 1915); type: functional, organism-based;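 also: potency for reduction of bacterial viability or growth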
HEK293 [24] = test: cells; type: functional, cell-based; details: Homo sapiens
Protein Wnt-3a = Protein Wnt-3a (Mus musculus, UniProt P27467); test: Wnt3a-driven reporter signaling inhibition, dose response, selectivity assay for Gli-SUFU antagonist project, Wnt-LIGHT cells, luminescence (AID 651570); type: functional; details: read-out: IC50_Mean;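 also: Wnt-LIGHT reporter cells stimulated with conditioned medium from Wnt3a-producing cells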
Sequence of Protein Wnt-3a (P27467 whole entry): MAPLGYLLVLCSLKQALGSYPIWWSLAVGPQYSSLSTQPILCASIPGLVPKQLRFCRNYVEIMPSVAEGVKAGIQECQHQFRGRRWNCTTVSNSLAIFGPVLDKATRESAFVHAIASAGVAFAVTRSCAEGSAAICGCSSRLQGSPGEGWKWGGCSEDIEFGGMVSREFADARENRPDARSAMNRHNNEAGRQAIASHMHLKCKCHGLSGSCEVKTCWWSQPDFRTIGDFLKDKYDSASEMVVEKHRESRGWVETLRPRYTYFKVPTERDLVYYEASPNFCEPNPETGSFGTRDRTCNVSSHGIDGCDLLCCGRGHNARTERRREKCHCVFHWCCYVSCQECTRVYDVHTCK

HEK293 [25] = test: cells; type: functional, cell-based; details: Homo sapiens; remark: listed apart in the source
[26] = target: Nucleotide-binding oligomerization domain-containing protein 2 (Homo sapiens, UniProt Q9HC29); test: NOD2 signaling inhibitors, cell-based, luminescence, uHTS, HEK293 (AID 1566); type: functional
Sequence of Nucleotide-binding oligomerization domain-containing protein 2 (Q9HC29 whole entry, the tested form may be a part): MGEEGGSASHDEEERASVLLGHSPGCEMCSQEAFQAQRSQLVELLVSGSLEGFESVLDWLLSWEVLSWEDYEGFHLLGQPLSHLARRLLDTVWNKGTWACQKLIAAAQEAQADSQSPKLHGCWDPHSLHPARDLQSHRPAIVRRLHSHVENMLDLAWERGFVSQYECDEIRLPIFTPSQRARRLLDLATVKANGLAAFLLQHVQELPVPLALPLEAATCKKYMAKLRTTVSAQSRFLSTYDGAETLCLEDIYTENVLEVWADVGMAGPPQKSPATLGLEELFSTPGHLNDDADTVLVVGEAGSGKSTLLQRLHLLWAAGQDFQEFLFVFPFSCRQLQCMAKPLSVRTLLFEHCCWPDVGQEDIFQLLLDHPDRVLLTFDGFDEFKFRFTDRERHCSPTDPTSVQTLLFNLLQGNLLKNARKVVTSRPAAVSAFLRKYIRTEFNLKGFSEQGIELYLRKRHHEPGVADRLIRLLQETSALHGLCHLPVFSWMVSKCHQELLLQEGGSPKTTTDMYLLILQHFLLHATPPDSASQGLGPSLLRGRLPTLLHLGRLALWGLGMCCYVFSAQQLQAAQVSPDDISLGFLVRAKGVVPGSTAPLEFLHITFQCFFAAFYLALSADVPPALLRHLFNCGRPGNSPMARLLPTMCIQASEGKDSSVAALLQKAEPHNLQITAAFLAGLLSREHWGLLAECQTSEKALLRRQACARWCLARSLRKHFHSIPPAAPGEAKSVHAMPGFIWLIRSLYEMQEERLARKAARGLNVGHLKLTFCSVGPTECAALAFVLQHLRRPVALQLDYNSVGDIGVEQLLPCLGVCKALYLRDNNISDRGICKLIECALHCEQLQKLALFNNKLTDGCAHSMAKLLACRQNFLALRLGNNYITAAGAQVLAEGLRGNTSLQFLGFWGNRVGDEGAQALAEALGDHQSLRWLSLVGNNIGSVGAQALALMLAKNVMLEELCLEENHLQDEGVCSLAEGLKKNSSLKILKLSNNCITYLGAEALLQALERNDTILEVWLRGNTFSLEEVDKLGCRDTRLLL

HEK293 [27] = test: NOD1 signaling inhibitors, primary screen, cell-based, luminescence, uHTS (AID 1578); type: functional; details: Homo sapiens
HEK293 [28] = test: NOD2 signaling inhibitors in MDP-stimulated cells, cell-based, uHTS, luminescence (AID 2001); type: functional; details: Homo sapiens
HEK293 [29] = test: cells; type: functional, cell-based; details: Homo sapiens; remark: listed apart in the source

Sequence of Adenosylmethionine-8-amino-7-oxononanoate aminotransferase (P9WQ81 whole entry): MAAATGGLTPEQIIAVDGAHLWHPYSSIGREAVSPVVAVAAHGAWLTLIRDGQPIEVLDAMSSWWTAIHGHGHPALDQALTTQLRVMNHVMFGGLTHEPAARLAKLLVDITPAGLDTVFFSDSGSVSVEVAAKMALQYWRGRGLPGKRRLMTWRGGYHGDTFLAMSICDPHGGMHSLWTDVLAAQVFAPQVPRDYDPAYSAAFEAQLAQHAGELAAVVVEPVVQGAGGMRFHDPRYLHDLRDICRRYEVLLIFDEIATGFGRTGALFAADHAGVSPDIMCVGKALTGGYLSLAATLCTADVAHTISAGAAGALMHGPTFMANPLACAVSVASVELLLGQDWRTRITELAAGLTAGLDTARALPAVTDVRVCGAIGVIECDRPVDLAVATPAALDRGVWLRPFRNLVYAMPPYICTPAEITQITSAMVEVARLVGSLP

O=C(Nc1cccnc1)c1ccc(N2CCOCC2)c([N+](=O)[O-])c1
active: AC50 [1] 6.8 µM

Cc1nn(CCC(=O)O)c2nc(-c3cccnc3)cc(C(F)(F)F)c12
active: AC50 [1] 10.2 µM

Cc1cc2nc(/C=C/c3cccnc3)[nH]c2cc1C
inconclusive: EC50 (BJ [4]) 1.89 µM | EC50 (BJ [5]) 0.553 µM | EC50 [6] 0.336 µM | EC50 [7] 1.42 µM | EC50 (BJ [9]) 15.1 µM
active: EC50 [2] 0.154 µM | EC50 [3] 0.318 µM | EC50 (BJ [8]) < 0.104 µM

COc1ccc(Cn2c(SCc3cc(C)ccc3C)nc3cc(OC)c(OC)cc3c2=N)cc1
active: AC50 [10] 11.2 µM | EC50 [2] 10.8 µM | EC50 [11] 5.16 µM | AC50 (HEK293 [12]) 7.9 µM | EC50 [3] 30.7 µM | AC50 [13] 7.91 µM | EC50 [14] 1.88 µM | AC50 (INS1) 3.48 µM | EC50 [16] 1.19 µM | EC50 [6] 24.1 µM | EC50 (Insulin-degrading enzyme [18]) 6.95 µM | AC50 [19] 9.31 µM | EC50 [20] 9.83 µM | EC50 [22] 2.47 µM | EC50 (Streptokinase A) 6.67 µM | EC50 (Streptococcus) 8.37 µM
inactive: EC50 [15] 83.4 µM | EC50 (Insulin-degrading enzyme [17]) > 54.7 µM | IC50 (HEK293 [21]) 10.7 µM | EC50 (HEK293 [23]) > 56 µM

C=CCn1c(O)c(N=NC(=S)Nc2cccc(C)c2)c2ccccc21
inactive: IC50 (Protein Wnt-3a) 29.2 µM | IC50 (HEK293 [25]) > 20 µM | IC50 (HEK293 [29]) > 20 µM
active: AC50 (HEK293 [12]) 1.46 µM | IC50 (HEK293 [24]) 2.97 µM | EC50 [16] 0.558 µM | EC50 [26] 16.3 µM | EC50 [20] 3.44 µM | EC50 (HEK293 [27]) 1.09 µM | IC50 (HEK293 [28]) 1.18 µM
